Experimental data reported in US6689887B2, “Inhibition of human telomerase by a G-quadruplex-interaction compound” (Board of Regents, The University of Texas System, priority 1998, dated 2004).

Experiments:
[1] = system: G-quadruplex of PQ74 template (four repeats of TTGGGG); experiment: DNA synthesis arrest assay with BSU-1051, PQ74 template; format: biochemical
Procedure: (§1) This assay is a modification of that described by Weitzmann and co-workers (Weitzmann et al., 1996). Briefly, primers (P18, 24 nM) labeled with [γ-^32P] were mixed with template DNA (12 nM)) in a Tris-HCl buffer (10 mM Tris, pH 8.0) containing K^+ (5 mM for the PQ74 template and 50 mM for the HT4 template) and denatured by heating at 90° C. for 5 min. After cooling down to room temperature, BSU-1051 was added at various concentrations and incubated at room temperature for 15 min. The primer extension reactions were initiated by adding dNTP (final concentration 100 μM), MgCl2 (final concentration […]), and Taq DNA polymerase (2.5 U/reaction, Boehringer Mannheim). For sequencing reactions, the TaqTrack Sequencing System (Promega, Wis., Madison) was used. The sequencing reaction buffer was changed to 50 mM Tris-HCl, pH 9.0, 10 mM MgCl, and 50 mM K^+. The reactions were stopped by adding an equal volume of stop buffer (95% formamide, 10 mM EDTA, 10 mM NaOH, 0.1% xylene cyanol, 0.1% bromphenol blue). For the temperature-dependent studies, the ligand concentration was fixed and the primer extension reactions were carried out at the temperatures indicated in methods. The products were separated on a 12% polyacrylamide sequencing gel. The gels were then dried and visualized on a PhosphorImager (Molecular Dynamics model 445 S1).
Although it has been shown that G-quadruplex structures block primer extension by DNA polymerase in a K^+ dependent manner (Weitzmann et at., 1996), the inventors are unaware of any reports showing enhanced blockage by G-quadruplex—interactive agents. To determine if BSU-1051 binding to G-quadruplex enhances the block to DNA synthesis, primer extension reactions were carried out in the absence and presence of BSU-1051. Taq DNA polymerase primer extension on DNA templates containing four repeats of either TTGGGG (SEQ ID No. 7) (PQ74) or TTAGGG (SEQ ID No. 1) (HT4) in the presence of different concentrations of BSU-1051 at 55° C. were performed. […]

[2] = system: G-quadruplex of HT4 template (four repeats of TTAGGG); experiment: DNA synthesis arrest assay with BSU-1051, HT4 template; format: biochemical, human
Procedure: as §1, with “S1). […]” for “S1).”

[3] = system: 7-deaza-dG substituted HT4 and PQ74 templates; experiment: Primer extension on 7-deaza-dG substituted templates; format: biochemical; settings: BSU-1051 up to 50 μM
Procedure: as §1, with “S1). […]” for “S1).”

d(TTAGGGT)4 G-quadruplex = experiment: UV/VIS spectroscopy titration with G-quadruplex; format: binding, human; settings: 20 μM compound, 0-80 μM quadruplex, overnight, pH 7.0
Procedure: (B) Compounds may be selected for their ability to interact with human DNA G-quadruplex as indicated by UV/VIS spectroscopy. To a 10 μM solution of N,N′-bis(2-dimethylaminoethyl)-3,4,9,10-perylenetetracarboxylic acid diimide in 20 mM phosphate buffer containing 100 mM KCl, pH 7.0 in a quartz cuvette was added 10 μL aliquots of a 3 mM solution of d(TTAGGGT)4 (SEQ ID No. 6). After each addition the UV/VIS spectrum was recorded.
(§2) The N,N′-bis(3-morpholinopropyl)3,4,9,10-perylenetetracarboxilic acid diimide (KeTEL01) was synthesized from 3,4,9,10-perylenetetracarboxylic acid dianhydride and 3-morpholinopropylamine using a procedure analogous to that described above in example 5.3 for the synthesis of N,N′-bis(2-piperdinoethyl)-3,4,9,10-perylenetetracarboxylic acid diimide. A solution of KeTEL01 was prepared by dissolving 1 mg of KeTEL01 in 300 μL of 1 N HCl. To this solution was added 11 mL of a pH 7.0 buffer containing 20 mM sodium phosphate, 100 mM KCl, 1 mM EDTA, and 0.02% hydroxypropyl-β-cyclodextrin. Aliquots of this stock solution of KeTEL01 were transferred to 8 different quartz cuvettes and diluted into pH 7.0 mM sodium phosphate, 100 mM KCl, 1 mM EDTA buffer to afford solutions in which the concentration of KeTEL01 was 20 μM. To each of the cuvettes was added a solution of [d(TTAGGGT)]4 (SEQ ID No. 6) so that the final concentration of [d(TTAGGGT)]4 (SEQ ID No. 6) in each of the cuvettes was 0, 4, 8, 12, 16, 20, 50, and 80 μM. These solutions were allowed to stand overnight in the dark, and the UV/VIS spectrum of each was determined. […] In a parallel study, changes in the UV/VIS spectrum of a 20 μM solution of KeTEL01 in a pH 7.0 20 mM phosphate buffer containing 100 mM KCl and 1 mM EDTA were determined upon the addition of […] aliquots of a 3 mM (base pair) solution of calf thymus DNA.

[4] = system: calf thymus DNA (double-stranded DNA); experiment: UV/VIS spectroscopy with double-stranded DNA; format: binding; settings: 20 μM compound, pH 7.0, 100 mM KCl
Procedure: as §2

[5] = system: [d(TTAGGGT)]4 G-quadruplex; experiment: Kinetics of interaction with G-quadruplex DNA (absorption at 488 nm); format: binding, human; settings: 5 μM compound, 50 μM quadruplex, pH 7.0
Procedure: A solution of 5 μM KeTEL01 in 20 mM phosphate buffer, 100 mM KCl, pH 7.0 was placed in a quartz cuvette and the UV/VIS spectrum determined. An aliquot of a solution of [d(TTAGGGT)]4 (SEQ ID No. 6) was added to the cuvette to afford a final concentration of 50 μM. The cuvette was quickly inverted several times and placed in the spectrophotometer. The absorption of the sample at 488 nm was continuously monitored for 3 hours, during which time, the absorption decreased in a multiexponential function. The time required for the absorption at 488 nm to reach one-half of its equilibrium value was 60 mm.

MCF-7 = experiment: MTT cytotoxicity assay, MCF-7; format: cell-based, human; settings: MCF-7, 72 hours
Procedure: (§3) The ability of these compounds to inhibit the proliferative capacity of human cancer cells was determined by a standard MTT assay. Briefly, cells were incubated for 72 hours in the presence of various concentrations of compound, and the cell viability was determined by monitoring the formation of a colored formazan salt of the tetrazolium salt 3-(4,5-dimethylthiazol-2-yl)-2,5-diphenyl tetrazolium bromide (MTT) by viable cells.

BT-20 = experiment: MTT cytotoxicity assay, BT-20; format: cell-based, human; settings: BT-20, 72 hours
Procedure: as §3

PC-3 = experiment: MTT cytotoxicity assay, PC-3; format: cell-based, human; settings: PC-3, 72 hours
Procedure: as §3

Raji = experiment: MTT cytotoxicity assay, Raji; format: cell-based, human; settings: 72 hours
Procedure: as §3

human cancer cells = experiment: MTT assay, human cancer cell lines; format: cell-based; settings: 72 hours; highest concentration tested 100 μM
Procedure: as §3

d(TTAGGG)4 G-quadruplex = experiment: NMR imino proton titration of G-quadruplex; format: binding, human; settings: overall stoichiometry 1:1, 500 MHz
Procedure: (C) Compounds may be selected for their ability to interact with human DNA G-quadruplex as indicated by NMR spectroscopy. The imino proton spectrum (9-12 ppm) of a solution of d(TTAGGG)4 (SEQ ID No. 1) in D2O/H2O (10:90) was determined at 500 MHz. Aliquot of N,N′-bis(2-piperdinoethyl)-3,4,9,10-perylenetetracarboxylic acid diimide were added and the imino proton spectrum recorded.

[6] = system: G-quadruplex in template DNA PQ74; experiment: DNA Synthesis Arrest Assay (Taq polymerase primer extension, PQ74 template); format: biochemical
Procedure: It has been shown that DNA sequences with quadruplex-forming potential present obstacles to DNA synthesis by DNA polymerases in a K^+ dependent manner. This K^+ dependent block to DNA polymerase is a selective and sensitive indicator of the formation of intramolecular quadruplexes (Weitzmann, et al., 1996).
The assay is a modification of that described by Weitzmann, et al. Briefly, primers (24 nM, sequence: 5′-TAATACGACTCACTATAG-3′) (SEQ ID No. 9) labeled with [γ-^32P]ATP were mixed with template DNA PQ74(12 nM, sequence: […] […]-3′) (SEQ ID No. 10) in a Tris-HCl buffer (10 mM Tris, pH 8.0) containing 5 mM K^+ and heated at 90° C. for 4 mm. After cooling at room temperature for 15 mm. potential G-quadruplex-interactive compounds were then added to various concentrations. The primer extension reactions were initiated by adding dNTP (final concentration 100 μM), MgCl2 (final concentration 3 mM) and Taq polymerase (2.5 U/reaction, Boehringer Mannheim). The reactions were incubated at 55° C. for 15 mm. then stopped by adding an equal volume of stop buffer (95% formamide, 10 mM EDTA; 10 mM NaGH, 0.1% xylene cyanol. 0.1% bromophenol blue). The products were separated on a 12% polyacrylamide sequencing gel. The gels were then dried and visualized on a phosphorimager (Molecular Dynamics model 445 S1).
Using the DOCK screening methods above, the carbocyanine group of compounds were identified as potential G-quadruplex interactive agents. […] Each compound was assayed at a concentration of 20 μM.

telomerase = experiment: Standard telomerase primer extension assay without PCR amplification; format: biochemical, human; settings: at 50 μM, confirmatory tests
Procedure: The identified inhibitors may be used therapeutically to interfere with the function of telomerase and thus to treat cancers.
Briefly, the 18-mer telomeric primer d[TTAGGG]3 (SEQ ID No. 1) (1 μM) without or with N,N′-bis(2-dimethylaminoethyl)-3,4,9,10-perylenetetracarboxylic acid diimide was elongated with telomerase in the presence of 1.5 μM of [α-^32P]-dGTP (800 Ci mmol^−1, 10 mCi ml^−1) with 1 mM dATP and 1 mM dTTP. The extension products were isolated and visualized by autoradiography after denaturing gel electrophoresis.

SMILES: C[N+]1(CCC(=O)Nc2ccc3c(c2)C(=O)c2ccc(NC(=O)CC[N+]4(C)CCCCC4CO)cc2C3=O)CCCCC1CO.[I-].[I-] (stereo not drawn) [BSU-1051]
- ΔTm of G-quadruplex ([1]; 20 μM BSU-1051): about 20 °C
- temperature up to which polymerase pausing is observed ([1]; 20 μM BSU-1051, without ligand pausing almost lost at around 65° C.): 74 °C
- primer extension by Taq DNA polymerase ([1]; 100 μM BSU-1051, 55° C., PQ74 or HT4 template): completely inhibited
- ΔTm of G-quadruplex ([2]; 20 μM BSU-1051): about 20 °C
- temperature up to which polymerase pausing is observed ([2]; in the presence of BSU-1051, without ligand pausing fades out at 55° C.): 65 °C
- polymerase pausing on 7-deaza-dG substituted templates [3]: no significant pausing

SMILES: O=C1c2ccc3c4ccc5c6c(ccc(c7ccc(c2c37)C(=O)N1CCCN1CCOCC1)c64)C(=O)N(CCCN1CCOCC1)C5=O [KeTEL01, N,N′-bis(3-morpholinopropyl)3,4,9,10-perylenetetracarboxilic acid diimide]
- hyperchromicity at 510 nm (d(TTAGGGT)4 G-quadruplex): ~40%
- hyperchromicity at 548 nm (d(TTAGGGT)4 G-quadruplex): ~100%
- hypochromicity at 488 nm (d(TTAGGGT)4 G-quadruplex): ~40%
- changes in the UV/VIS spectrum upon addition of calf thymus DNA [4]: No changes
- time required for absorption at 488 nm to reach one-half of its equilibrium value [5]: 60 min
- IC50 (MCF-7): > 100 µM
- IC50 (BT-20): > 100 µM
- IC50 (PC-3): > 100 µM
- IC50 (Raji): > 100 µM
- cytotoxic effect, MTT (human cancer cells): no cytotoxic effect

SMILES: O=C1c2ccc3c4ccc5c6c(ccc(c7ccc(c2c37)C(=O)N1CCN1CCCCC1)c64)C(=O)N(CCN1CCCCC1)C5=O [N,N′-bis(2-piperdinoethyl)-3,4,9,10-perylenetetracarboxylic acid diimide]
- upfield shift of G6 imino resonance (d(TTAGGG)4 G-quadruplex): > 0.2 ppm
- DNA synthesis arrest (FIG. 8) ([6]; 0.5-50 μM, PQ sequence): DNA synthesis arrest

SMILES: CCN1/C(=C/C=C/c2sc3ccccc3[n+]2CC)Sc2ccccc21.[I-] [UT-SK-002, diethylthiocarbocyanine iodide]
- inhibition of telomerase (telomerase): 10-35%
- Stop (F + P)rel: relative amount of both full-length and paused products ([6]; compound 20 μM): 88%
- Stop (P/T)rel: relative ratio of paused products to total products ([6]; compound 20 μM): 139%
